Converted amounts (≈) assume the structure as drawn. Like-named read-outs stand apart in the source and are kept apart here.
Tests used:
[1] = target: mouse cathepsin L (mCTSL) (Mus musculus, UniProt P06797); assay: mCTSL biochemical assay
SARS-CoV-2 M^pro = SARS-CoV-2 M^pro (Severe acute respiratory syndrome coronavirus 2, UniProt P0DTD1); assay: biochemical; type: biochemical; conditions: for M^pro inhibition, IC50 range in words: biochemical assay; for IC50: read-out: M^pro biochemical assay pIC50 (converted)
[2] = target: T1, human cathepsin L (hCTSL) (Homo sapiens, UniProt P07711); assay: hCTSL biochemical assay; conditions: for hCTSL inhibition, IC50 range in words: biochemical assay
T1 construct: purchased R&D Systems
T1 sequence (P07711 114-333): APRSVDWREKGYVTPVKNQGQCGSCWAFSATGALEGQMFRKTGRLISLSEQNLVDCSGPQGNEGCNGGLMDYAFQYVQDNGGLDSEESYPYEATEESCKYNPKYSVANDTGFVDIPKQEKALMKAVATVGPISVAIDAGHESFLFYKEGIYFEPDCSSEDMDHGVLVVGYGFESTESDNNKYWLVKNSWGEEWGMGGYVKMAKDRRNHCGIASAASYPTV

[3] = target: human cathepsin B (hCTSB) (Homo sapiens, UniProt P07858); assay: hCTSB biochemical assay
SARS-CoV-2 = assay: microbe, parasite or virus in culture; type: cell-based; conditions: for EC50: Severe acute respiratory syndrome coronavirus 2, Vero C1008, read-out: SARS-CoV-2 CPE reduction assay pEC50 (converted)
[4] = system: luciferase-expressing VSV (ΔG) pseudotyped with Spike from SARS-CoV-2; assay: microbe, parasite or virus in culture; type: cell-based; conditions: Vesicular stomatitis virus, Vero C1008, read-out: Entry reporter assay pEC50 (converted)
in vitro [5] = conditions: African green monkey
in vitro [6] = conditions: mouse, hepatocytes; for hepatocyte CLint at 2 h, 2 µM: CLint (mouse hepatocytes)
in vitro [7] = conditions: mouse, plasma, mouse plasma protein binding
[8] = 3 h, 2 µM
physchem [9] = conditions: pH 7.4
physchem [10] = conditions: pH 7.4; remark: listed apart in the source
[11] = microsomes, 10 µM, pH 7.4
[12] = Mouse hepatocyte stability; conditions: mouse, cryopreserved hepatocytes
[13] = target: mouse cathepsin B (mCTSB) (Mus musculus, UniProt P10605); assay: mCTSB biochemical assay; conditions: read-out: pIC50 (mouse CTSB) (converted)
Chain of mouse cathepsin B (mCTSB) (P10605 80-339): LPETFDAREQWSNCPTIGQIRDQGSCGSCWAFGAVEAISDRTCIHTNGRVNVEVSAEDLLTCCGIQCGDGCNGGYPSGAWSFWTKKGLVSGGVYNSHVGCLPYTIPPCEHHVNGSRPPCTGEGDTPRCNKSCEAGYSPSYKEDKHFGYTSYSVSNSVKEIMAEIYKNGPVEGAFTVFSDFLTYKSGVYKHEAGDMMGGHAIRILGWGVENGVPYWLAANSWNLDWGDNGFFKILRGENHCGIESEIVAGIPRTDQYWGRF

[14] = read-out: pIC50 (mouse CTSL) (converted)

Chain of mouse cathepsin L (mCTSL) (P06797 114-334): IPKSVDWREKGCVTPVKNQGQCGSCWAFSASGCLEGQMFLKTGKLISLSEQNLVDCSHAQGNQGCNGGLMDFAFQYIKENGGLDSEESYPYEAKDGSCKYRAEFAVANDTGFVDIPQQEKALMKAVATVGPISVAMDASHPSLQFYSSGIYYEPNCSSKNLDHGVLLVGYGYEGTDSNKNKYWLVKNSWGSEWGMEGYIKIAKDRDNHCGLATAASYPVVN

Row | Structure (SMILES) | IC50 (SARS-CoV-2 M^pro) | hCTSL biochemical assay pIC50 [2] | hCTSB biochemical assay pIC50 [3] | IC50 [1, 14] | EC50 (SARS-CoV-2) | EC50 [4] | CC50 (in vitro [5]) | hepatocyte CLint at 2 h, 2 µM (in vitro [6]) | fraction unbound at 3 h, 2 µM (in vitro [7]; fraction bound (Fb)) | fraction unbound at 3 h, 2 µM (in vitro [7]; fraction unbound (Fu)) | mouse plasma protein binding, fraction bound (Fb) [8] | logD at 1 h (physchem [9]) | solubility kinetic at 24 h (physchem [10]) | further results
1 | CC(C)(C)[C@H](NC(=O)C(F)(F)F)C(=O)N1C[C@H]2[C@@H]([C@H]1C(=O)N[C@H](C#N)C[C@@H]1CCNC1=O)C2(C)C [Nirmatrelvir, reference compound] |  |  |  |  |  |  |  |  |  |  |  |  |  | IC50 [1]: > 50100 nM
2 | COc1cccc2[nH]c(C(=O)N[C@H](Cc3cccc(F)c3)C(=O)N[C@@H](C[C@@H]3CCNC3=O)C(=O)COc3c(F)c(F)c(CO)c(F)c3F)cc12 [compound 2, N-((R)-3-(3-Fluorophenyl)-1-oxo-1-(((S)-3-oxo-1-((S)-2-oxopyrrolidin-3-yl)-4-(2,3,5,6-tetrafluoro-4-(hydroxymethyl)phenoxy)butan-2-yl)amino)propan-2-yl)-4-methoxy-1H-indole-2-carboxamide] | 4270 nM | 4.67 | 5.14 | 13500 nM | 21900 nM | > 50.1 µM | > 74.1 µM |  |  |  |  |  |  | M^pro inhibition, IC50 range in words (SARS-CoV-2 M^pro): only micromolar inhibition; hCTSL inhibition, IC50 range in words [2]: only micromolar inhibition; fold less active than 1 in the SARS-CoV-2 CPE reduction assay (SARS-CoV-2): ~169 fold
3 | CCCCCCCC(=O)N[C@@H](Cc1cccc(F)c1)C(=O)N[C@@H](C[C@@H]1CCNC1=O)C(=O)COc1c(F)c(F)c(CO)c(F)c1F [compound 3, N-((S)-3-(3-Fluorophenyl)-1-oxo-1-(((S)-3-oxo-1-((S)-2-oxopyrrolidin-3-yl)-4-(2,3,5,6-tetrafluoro-4-(hydroxymethyl)phenoxy)butan-2-yl)amino)propan-2-yl)octanamide] | 11.5 nM | 7.39 | 7.92 | 75.9 nM | 70.8 nM |  | > 0.501 µM | 206 µL/min/1e6 cells | 0.0041 | 0.0041 | 99.59% | 2.23 |  | 
4 | CCCCCCCCCCCCCCCC(=O)N[C@@H](Cc1cccc(F)c1)C(=O)N[C@@H](C[C@@H]1CCNC1=O)C(=O)COc1c(F)c(F)c(CO)c(F)c1F [compound 4, N-((S)-3-(3-Fluorophenyl)-1-oxo-1-(((S)-3-oxo-1-((S)-2-oxopyrrolidin-3-yl)-4-(2,3,5,6-tetrafluoro-4-(hydroxymethyl)phenoxy)butan-2-yl)amino)propan-2-yl)palmitamide] | 3800 nM | < 4.30 | 5.11 | 10500 nM | 2240 nM | 5.62 µM | > 25.1 µM | 9.31 µL/min/1e6 cells |  |  |  |  |  | M^pro inhibition, IC50 range in words (SARS-CoV-2 M^pro): only micromolar inhibition; logD (physchem [9]): > 3.5; hCTSL inhibition, IC50 range in words [2]: only micromolar inhibition
5 | COc1cccc2[nH]c(C(=O)N[C@@H](Cc3cccc(F)c3)C(=O)N[C@@H](C[C@@H]3CC(=O)NC3=O)C(=O)COc3c(F)c(F)c(CO)c(F)c3F)cc12 [compound 6, N-((S)-1-(((S)-1-((R)-2,5-Dioxopyrrolidin-3-yl)-3-oxo-4-(2,3,5,6-tetrafluoro-4-(hydroxymethyl)phenoxy)butan-2-yl)amino)-3-(3-fluorophenyl)-1-oxopropan-2-yl)-4-methoxy-1H-indole-2-carboxamide] | 6.03 nM | 7.89 | 6.55 | 97.7 nM | 1910 nM |  | > 25.1 µM | 156 µL/min/1e6 cells |  |  |  | 3.08 | 20.9 µM (≈ 15 µg/mL) | Peak area (%) by LCMS, mouse liver microsomal stability assay of 1 ([11]; 0 h): 0%; Peak area (%) by LCMS, mouse liver microsomal stability assay of 1 ([11]; 5 min): 2.5%; Peak area (%) by LCMS, mouse liver microsomal stability assay of 1 ([11]; 0.25 h): 10.2%; Peak area (%) by LCMS, mouse liver microsomal stability assay of 1 ([11]; 0.5 h): 19.2%; Peak area (%) by LCMS, mouse liver microsomal stability assay of 1 ([11]; 0.75 h): 23.2%; Peak area (%) by LCMS, mouse liver microsomal stability assay of 1 ([11]; 1 h): 24.9%
6 | COc1cccc2[nH]c(C(=O)N[C@@H](Cc3cccc(F)c3)C(=O)N[C@@H](C[C@@H]3CC(=O)NC3=O)C(=O)COc3c(F)c(F)c(C(C)O)c(F)c3F)cc12 (stereo partly drawn) [compound 9, N-((2S)-1-(((2S)-1-((R)-2,5-Dioxopyrrolidin-3-yl)-3-oxo-4-(2,3,5,6-tetrafluoro-4-(1-hydroxyethyl)phenoxy)butan-2-yl)amino)-3-(3-fluorophenyl)-1-oxopropan-2-yl)-4-methoxy-1H-indole-2-carboxamide] | 5.5 nM | 7.65 | 6.09 | 158 nM | 1200 nM |  | > 10 µM | 134 µL/min/1e6 cells |  |  |  | 2.6 | 6.33 µM (≈ 4.62 µg/mL) | 
7 | COc1cccc2[nH]c(C(=O)N[C@@H](Cc3cccc(F)c3)C(=O)N[C@@H](C[C@@H]3CC(=O)NC3=O)C(=O)COc3c(F)c(F)c(C(C)(C)O)c(F)c3F)cc12 [compound 11] | 6.76 nM | 7.95 | 5.88 | 316 nM | 759 nM | 8.91 µM | > 5.01 µM | 124 µL/min/1e6 cells |  |  |  | 2.03 | 0.88 µM (≈ 0.655 µg/mL) | fold less active than 1 in the SARS-CoV-2 CPE reduction assay (SARS-CoV-2): ~6 fold
8 | COc1cccc2[nH]c(C(=O)N[C@@H](Cc3cccc(F)c3)C(=O)N[C@@H](CCn3cn[nH]c3=O)C(=O)COc3c(F)c(F)c(C(C)(C)O)c(F)c3F)cc12 [compound 13, N-((S)-3-(3-Fluorophenyl)-1-oxo-1-(((S)-2-oxo-5-(5-oxo-1,5-dihydro-4H-1,2,4-triazol-4-yl)-1-(2,3,5,6-tetrafluoro-4-(2-hydroxypropan-2-yl)phenoxy)pentan-3-yl)amino)propan-2-yl)-4-methoxy-1H-indole-2-carboxamide] | 295 nM | 8.71 | 6.68 | 23.4 nM | 1660 nM |  | > 10 µM | 78.8 µL/min/1e6 cells |  |  |  | 2.7 | 6.78 µM (≈ 5.05 µg/mL) | hepatocyte CLint at 1 µM (in vitro [6]; CLint (mouse hepatocytes + ritonavir 4:1)): 49.3 µL/min/1e6 cells; half-life at 1 µM [12]: 22 min; fraction unbound at 3 h, 800 µM (in vitro [7]; fraction bound (Fb)): 0.0031; fraction unbound at 3 h, 800 µM (in vitro [7]; fraction unbound (Fu)): 0.0028; IC50 [13]: < 6.92 nM
9 | COc1cccc2[nH]c(C(=O)N[C@@H](Cc3cccc(F)c3)C(=O)N[C@@H](C[C@@H]3CCNC3=O)C(=O)COc3c(F)c(F)cc(F)c3F)cc12 [compound 15, reference compound] | 5.89 nM | 7.39 | 5.46 | 603 nM | 39.8 nM |  | > 1.26 µM | 240 µL/min/1e6 cells | 0.0043 | 0.0043 | 99.57% | 2.99 | 1.4 µM (≈ 0.942 µg/mL) | selectivity for M^pro over hCTSL (SARS-CoV-2 M^pro; biochemical assays): ~7 fold
10 | COc1cccc2[nH]c(C(=O)N[C@@H](Cc3cccc(F)c3)C(=O)N[C@@H](C[C@@H]3CCNC3=O)C(=O)COc3c(F)c(F)c(F)c(F)c3F)cc12 [compound 16, reference compound] | 6.76 nM | 6.98 | 5.82 | 550 nM | 39.8 nM | 0.676 µM | > 0.251 µM | 154 µL/min/1e6 cells | 0.0067 | 0.0067 | 99.33% | 2.95 | 4.09 µM (≈ 2.82 µg/mL) | selectivity for M^pro over hCTSL (SARS-CoV-2 M^pro): ~16 fold
